System: 697
Test: selective drug sensitivity score (sDSS, relative to normal bone marrow) (sDSS (score)); higher = more potent and effective on the cell line relative to normal bone marrow cells
Settings: 72 h
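Also: ALL cell lines in 384-well plates, five doses spanning 10,000-fold, each plate scaled between vehicle and 100 µmol/L benzalkonium chloride controls, sDSS an adapted area-under-curve metric.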

Point of comparison: `Oc1ncnc2[nH]ncc12` [Allopurinol] (top concentration 10000 nM), “selective drug sensitivity score” value -0.64. Against it:
- Nc1nc2cc(-c3ccc4ncc(C(=O)N5CCOCC5)n4c3)ccc2o1 [Serabelisib] (top concentration 10000 nM) — higher, 2.96
- COc1cccc(-c2ccc(NC(=O)C3=C(C(=O)O)CCC3)c(F)c2)c1 [Vidofludimus] (top concentration 10000 nM) — higher, 6
- Cc1cccc(-c2nn3c(c2-c2ccnc4ccc(C(N)=O)cc24)CCC3)n1 [Galunisertib] (top concentration 1000 nM) — higher, 0
- COc1cc2c(N3CCN(C(=O)Nc4ccc(OC(C)C)cc4)CC3)ncnc2cc1OCCCN1CCCCC1 [Tandutinib] (top concentration 1000 nM) — higher, 0
- Cc1c(F)cc(C(=O)NC2CC2)cc1-c1ccc(C(=O)NCC(C)(C)C)cn1 [Losmapimod] (top concentration 10000 nM) — higher, 2.72
- Nc1nc(N)c2nc(-c3cccc(O)c3)c(-c3cccc(O)c3)nc2n1 [TG100-115] (top concentration 10000 nM) — higher, 0.7
- C[C@]12CC[C@@H]3c4ccc(O)cc4C[C@@H](CCCCCCCCC[S+]([O-])CCCC(F)(F)C(F)(F)F)[C@H]3[C@@H]1CC[C@@H]2O (stereo not given in full) [Fulvestrant] (top concentration 1000 nM) — higher, 0
- O=C(Nc1cccnc1)N1CCC(Cc2cccc(Oc3ccc(C(F)(F)F)cn3)c2)CC1 [PF-3845] (top concentration 10000 nM) — higher, 4.06
- COc1cc2c(cc1OCCCN1CCCC1)N=C(N)C21CCC1 [A-366] (top concentration 25000 nM) — lower, -1.34
- CC(C)n1cnc2c(NCCc3ccc(O)cc3)nc(-c3csc4ccccc34)nc21 [StemRegenin_1] (top concentration 10000 nM) — higher, -0.5
- C#Cc1cccc(Nc2ncnc3cc4c(cc23)OCCOCCOCCO4)c1 [Icotinib] (top concentration 10000 nM) — higher, 3.2
- CN[C@@H](C)C(=O)N[C@H]1CN(C(=O)CC(C)C)CC[C@H]2CC[C@@H](C(=O)NC(c3ccccc3)c3ccccc3)N2C1=O [AT-406] (top concentration 10000 nM) — lower, -1.26
- CC(C)(O)CC(=O)NCCn1ccc2ncnc(Nc3ccc(Oc4cccc(C(F)(F)F)c4)c(Cl)c3)c21 [TAK-285] (top concentration 2500 nM) — higher, 0
- COc1cc(C)[nH]c(=O)c1CNC(=O)c1c(C)n([C@H](C)C2CCOCC2)c2ccccc12 [CPI-360] (top concentration 10000 nM) — higher, 0
- Cc1cc2c(C(=O)NC[C@H](C)c3ccccc3)c(O)c(O)cc2c(O)c1-c1c(C)cc2c(C(=O)NC[C@H](C)c3ccccc3)c(O)c(O)cc2c1O [Sabutoclax] (top concentration 25000 nM) — higher, 15.9
- CC(C)(C)C[C@@H]1N[C@@H](C(=O)N[C@H]2CC[C@H](O)CC2)[C@H](c2cccc(Cl)c2F)[C@]12C(=O)Nc1cc(Cl)ccc12 (top concentration 10000 nM) — higher, 11.2
- C[C@@H]1C[C@H]2[C@@H]3CCC4=CC(=O)C=C[C@]4(C)[C@@]3(F)[C@@H](O)C[C@]2(C)[C@@]1(O)C(=O)CO [Dexamethasone] (top concentration 10000 nM) — higher, 32.2

System: CCRF-CEM
Test: as above
Settings: 72 h

Point of comparison: `Cc1c(F)cc(C(=O)NC2CC2)cc1-c1ccc(C(=O)NCC(C)(C)C)cn1` [Losmapimod] (top concentration 10000 nM), “selective drug sensitivity score” value -0.18. Against it:
- Nc1nc2cc(-c3ccc4ncc(C(=O)N5CCOCC5)n4c3)ccc2o1 [Serabelisib] (top concentration 10000 nM) — higher, 0.76
- COc1cccc(-c2ccc(NC(=O)C3=C(C(=O)O)CCC3)c(F)c2)c1 [Vidofludimus] (top concentration 10000 nM) — higher, 3.1
- Cc1cccc(-c2nn3c(c2-c2ccnc4ccc(C(N)=O)cc24)CCC3)n1 [Galunisertib] (top concentration 1000 nM) — higher, 0
- COc1cc2c(N3CCN(C(=O)Nc4ccc(OC(C)C)cc4)CC3)ncnc2cc1OCCCN1CCCCC1 [Tandutinib] (top concentration 1000 nM) — higher, 0
- Nc1nc(N)c2nc(-c3cccc(O)c3)c(-c3cccc(O)c3)nc2n1 [TG100-115] (top concentration 10000 nM) — higher, 0.4
- C[C@]12CC[C@@H]3c4ccc(O)cc4C[C@@H](CCCCCCCCC[S+]([O-])CCCC(F)(F)C(F)(F)F)[C@H]3[C@@H]1CC[C@@H]2O (stereo not given in full) [Fulvestrant] (top concentration 1000 nM) — higher, 0
- O=C(Nc1cccnc1)N1CCC(Cc2cccc(Oc3ccc(C(F)(F)F)cn3)c2)CC1 [PF-3845] (top concentration 10000 nM) — lower, -0.44
- COc1cc2c(cc1OCCCN1CCCC1)N=C(N)C21CCC1 [A-366] (top concentration 25000 nM) — higher, 2.16
- Oc1ncnc2[nH]ncc12 [Allopurinol] (top concentration 10000 nM) — lower, -0.24
- CC(C)n1cnc2c(NCCc3ccc(O)cc3)nc(-c3csc4ccccc34)nc21 [StemRegenin_1] (top concentration 10000 nM) — higher, 1.4
- C#Cc1cccc(Nc2ncnc3cc4c(cc23)OCCOCCOCCO4)c1 [Icotinib] (top concentration 10000 nM) — higher, 0.3
- CN[C@@H](C)C(=O)N[C@H]1CN(C(=O)CC(C)C)CC[C@H]2CC[C@@H](C(=O)NC(c3ccccc3)c3ccccc3)N2C1=O [AT-406] (top concentration 10000 nM) — higher, 1.34
- CC(C)(O)CC(=O)NCCn1ccc2ncnc(Nc3ccc(Oc4cccc(C(F)(F)F)c4)c(Cl)c3)c21 [TAK-285] (top concentration 2500 nM) — higher, 0.2
- COc1cc(C)[nH]c(=O)c1CNC(=O)c1c(C)n([C@H](C)C2CCOCC2)c2ccccc12 [CPI-360] (top concentration 10000 nM) — higher, 0
- Cc1cc2c(C(=O)NC[C@H](C)c3ccccc3)c(O)c(O)cc2c(O)c1-c1c(C)cc2c(C(=O)NC[C@H](C)c3ccccc3)c(O)c(O)cc2c1O [Sabutoclax] (top concentration 25000 nM) — higher, 13.8
- CC(C)(C)C[C@@H]1N[C@@H](C(=O)N[C@H]2CC[C@H](O)CC2)[C@H](c2cccc(Cl)c2F)[C@]12C(=O)Nc1cc(Cl)ccc12 (top concentration 10000 nM) — lower, -3.94
- C[C@@H]1C[C@H]2[C@@H]3CCC4=CC(=O)C=C[C@]4(C)[C@@]3(F)[C@@H](O)C[C@]2(C)[C@@]1(O)C(=O)CO [Dexamethasone] (top concentration 10000 nM) — higher, 13.9

System: COG-LL-319h
Test: as above
Settings: 72 h

Point of comparison: `COc1cc2c(cc1OCCCN1CCCC1)N=C(N)C21CCC1` [A-366] (top concentration 25000 nM), “selective drug sensitivity score” value 3.16. Against it:
- Nc1nc2cc(-c3ccc4ncc(C(=O)N5CCOCC5)n4c3)ccc2o1 [Serabelisib] (top concentration 10000 nM) — lower, -0.44
- COc1cccc(-c2ccc(NC(=O)C3=C(C(=O)O)CCC3)c(F)c2)c1 [Vidofludimus] (top concentration 10000 nM) — higher, 6.9
- Cc1cccc(-c2nn3c(c2-c2ccnc4ccc(C(N)=O)cc24)CCC3)n1 [Galunisertib] (top concentration 1000 nM) — lower, 0
- COc1cc2c(N3CCN(C(=O)Nc4ccc(OC(C)C)cc4)CC3)ncnc2cc1OCCCN1CCCCC1 [Tandutinib] (top concentration 1000 nM) — lower, 0
- Cc1c(F)cc(C(=O)NC2CC2)cc1-c1ccc(C(=O)NCC(C)(C)C)cn1 [Losmapimod] (top concentration 10000 nM) — lower, -0.18
- Nc1nc(N)c2nc(-c3cccc(O)c3)c(-c3cccc(O)c3)nc2n1 [TG100-115] (top concentration 10000 nM) — lower, 0.6
- C[C@]12CC[C@@H]3c4ccc(O)cc4C[C@@H](CCCCCCCCC[S+]([O-])CCCC(F)(F)C(F)(F)F)[C@H]3[C@@H]1CC[C@@H]2O (stereo not given in full) [Fulvestrant] (top concentration 1000 nM) — lower, 0
- O=C(Nc1cccnc1)N1CCC(Cc2cccc(Oc3ccc(C(F)(F)F)cn3)c2)CC1 [PF-3845] (top concentration 10000 nM) — lower, -0.04
